# Laboratory results taken from US12193328B2, “Aromatic compounds and use thereof for formation of molecular layers and fabrication of switching elements for memristive devices” (MERCK PATENT GMBH, priority 2019, dated 2025).
# Like-named read-outs stand apart in the source and are kept apart here.
# Experiment: Comparative solubility test in various solvents
# Format: physicochemical
# Details: 1 mM concentration, 23° C., stirred 18 h, visually inspected; for solubility at 18 h: organic solvent or mixture, thermodynamic from solid
# Procedure: Comparative Solubility Test
# The comparative solubilities of the following Reference Compound 1 (reference from DE102017005884):
# [drawing 83] and of Synthesis Example 1 in various solvents at 1 mM concentration at 23° C. are experimentally determined. The sample is stirred for 18 h at 23° C. and then visually inspected. In the table below the expression “soluble” means that after 18 h a clear solution is obtained. “Not soluble” means that remaining solid is observed.
# [1] = 1-Methoxy-2-propanol acetate, read-out: Solubility in 1-methoxy-2-propanol acetate
# [2] = Cyclohexanone, read-out: Solubility in cyclohexanone
Solubility in chloroform,Solubility in THF,Solubility in toluene (Toluene),solubility at 18 h [1] [µM],solubility at 18 h [2] [µM],"solubility at 18 h (Ethyl acetate, read-out: Solubility in ethyl acetate) [µM]",Solubility in 1-methoxy-2-propanol acetate (1-Methoxy-2-propanol acetate),Solubility in cyclohexanone (Cyclohexanone),Solubility in ethyl acetate (Ethyl acetate),"solubility at 18 h (Toluene, read-out: Solubility in toluene) [µM]",SMILES
Soluble,Soluble,Soluble,< 1000,< 1000,< 1000,,,,,"CCCCCC1CCC(c2ccc(OCCCCCCCCCCCP(=O)(O)O)c(F)c2F)CC1 (centres unmarked) [Reference 1, 11-[2,3-difluoro-4-(4-pentylcyclohexyl)phenoxy]undecylphosphonic acid, reference compound]"
Soluble,Soluble,,> 1000,> 1000,,Soluble,Soluble,Soluble,< 1000,"CCCCC[C@H]1CC[C@H](c2ccc(Oc3c(C)cc(P(=O)(O)O)cc3C)c(F)c2F)CC1 [Synthesis Example 1, [4-[2,3-difluoro-4-(4-pentylcyclohexyl)phenoxy]-3,5-dimethyl-phenyl]phosphonic acid]"
